For series [1], the target named is T1, Cytochrome P450 11B1, mitochondrial (Homo sapiens, UniProt P15538).
T1 sequence (P15538 whole entry): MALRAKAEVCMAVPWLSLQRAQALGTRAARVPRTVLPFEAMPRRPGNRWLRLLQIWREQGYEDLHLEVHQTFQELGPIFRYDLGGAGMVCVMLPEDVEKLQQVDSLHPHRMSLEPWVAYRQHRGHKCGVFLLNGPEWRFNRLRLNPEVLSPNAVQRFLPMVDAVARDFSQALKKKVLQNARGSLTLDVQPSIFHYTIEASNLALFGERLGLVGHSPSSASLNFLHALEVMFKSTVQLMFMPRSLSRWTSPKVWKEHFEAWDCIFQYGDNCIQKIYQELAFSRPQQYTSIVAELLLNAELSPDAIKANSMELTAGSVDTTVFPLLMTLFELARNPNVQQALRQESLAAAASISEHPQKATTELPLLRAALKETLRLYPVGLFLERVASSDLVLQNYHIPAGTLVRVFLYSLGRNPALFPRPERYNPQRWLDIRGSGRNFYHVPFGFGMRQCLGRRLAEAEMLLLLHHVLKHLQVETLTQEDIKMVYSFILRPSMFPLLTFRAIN
Put plainly: Inhibition of human CYP11B1 expressed in hamster V79MZ cells using [1,2-3H]-11-deoxycorticosterone as substrate after 6 hrs by HPTLC analysis. In kind it is cell-based.

The target of series [2] is T2, 11-beta-hydroxysteroid dehydrogenase 1 (Homo sapiens, UniProt P28845). Put plainly: Inhibition of human 11beta-HSD1 expressed in HEK293 cell lysates at 50 uM using [1,2-3H]-cortisone as substrate preincubated for 10 mins followed by substrate addition in presence of NADPH by scintillation counting relative to control.
Target sequence in this assay (P28845 whole entry, looked up): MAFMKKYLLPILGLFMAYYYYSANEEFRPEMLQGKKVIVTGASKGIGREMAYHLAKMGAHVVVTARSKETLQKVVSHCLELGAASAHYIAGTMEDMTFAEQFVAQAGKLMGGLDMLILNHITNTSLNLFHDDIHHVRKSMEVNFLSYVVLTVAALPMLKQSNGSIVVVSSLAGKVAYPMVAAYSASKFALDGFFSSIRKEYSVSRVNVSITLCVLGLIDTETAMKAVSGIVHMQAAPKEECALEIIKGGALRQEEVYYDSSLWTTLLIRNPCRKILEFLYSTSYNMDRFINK
The nature of series [3]: Half life in human liver S9 fraction at 1 uM up to 60 mins in presence of NADPH/UDPGA by LC-MS/MS analysis. In kind it is ADME, subcellular.
The target in another series is T3, CYP19A1 (aromatase) (Homo sapiens, UniProt P11511).
T3 sequence (P11511 whole entry): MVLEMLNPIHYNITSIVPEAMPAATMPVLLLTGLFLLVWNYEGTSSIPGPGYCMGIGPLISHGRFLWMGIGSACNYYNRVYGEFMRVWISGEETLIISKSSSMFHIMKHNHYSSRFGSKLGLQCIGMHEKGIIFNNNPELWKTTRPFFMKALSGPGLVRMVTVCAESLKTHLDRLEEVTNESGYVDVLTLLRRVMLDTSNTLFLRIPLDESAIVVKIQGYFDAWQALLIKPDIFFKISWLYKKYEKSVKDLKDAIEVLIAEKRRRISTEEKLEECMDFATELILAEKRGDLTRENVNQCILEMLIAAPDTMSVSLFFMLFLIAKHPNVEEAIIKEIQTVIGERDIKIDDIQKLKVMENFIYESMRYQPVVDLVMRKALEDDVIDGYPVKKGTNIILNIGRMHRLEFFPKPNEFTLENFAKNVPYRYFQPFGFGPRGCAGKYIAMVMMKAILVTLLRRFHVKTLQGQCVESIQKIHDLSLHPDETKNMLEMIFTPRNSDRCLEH
Put plainly: Inhibition of human placental microsomal CYP19A1 at 2 uM using [1beta-3H]androstenedione after 21 mins by liquid scintillation spectrometry. The class given is ADME. As to conditions: placental microsomes, probe [1beta-3H]androstenedione; call rule not given here.

Series [4] addresses T2, 11-beta-hydroxysteroid dehydrogenase 1. Put plainly: Inhibition of human 11beta-HSD1 expressed in HEK293 cell lysates at 200 uM using [1,2-3H]-cortisone as substrate preincubated for 10 mins followed by substrate addition in presence of NADPH by scintillation counting relative to control.
Target sequence in this assay (P28845 whole entry, looked up): as the sequence (P28845 whole entry, looked up) above
Series [5] has as its target T4, 11-beta-hydroxysteroid dehydrogenase type 2 (Homo sapiens, UniProt P80365).
T4 sequence (P80365 whole entry): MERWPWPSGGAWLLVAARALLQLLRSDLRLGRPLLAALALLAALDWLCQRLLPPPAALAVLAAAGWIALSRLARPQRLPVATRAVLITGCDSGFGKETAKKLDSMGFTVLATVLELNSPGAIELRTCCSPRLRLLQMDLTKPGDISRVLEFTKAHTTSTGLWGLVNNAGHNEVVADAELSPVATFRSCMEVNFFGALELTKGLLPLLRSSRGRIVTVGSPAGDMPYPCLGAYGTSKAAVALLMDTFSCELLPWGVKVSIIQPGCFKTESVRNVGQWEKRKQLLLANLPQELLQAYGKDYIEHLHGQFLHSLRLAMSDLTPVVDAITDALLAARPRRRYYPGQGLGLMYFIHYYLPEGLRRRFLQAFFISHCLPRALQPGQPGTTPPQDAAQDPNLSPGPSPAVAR
Put plainly: Inhibition of human 11beta-HSD2 expressed in HEK293 cell lysates at 200 uM using [1,2,6,7-3H]-cortisol as substrate preincubated for 10 mins followed by substrate addition in presence of NAD by scintillation counting relative to control. Further details: species or system Lysate.

The target in series [6] is T4, 11-beta-hydroxysteroid dehydrogenase type 2. Put plainly: Inhibition of human 11beta-HSD2 expressed in HEK293 cell lysates at 10 uM using [1,2,6,7-3H]-cortisol as substrate preincubated for 10 mins followed by substrate addition in presence of NAD by scintillation counting relative to control. Details: species or system Lysate.
Series [7] deals with T2, 11-beta-hydroxysteroid dehydrogenase 1. Put plainly: Inhibition of human 11beta-HSD1 expressed in HEK293 cell lysate using [1,2-3H]-cortisone as substrate preincubated for 10 mins followed by substrate addition in presence of NADPH by scintillation counting.
Target sequence in this assay (P28845 whole entry): as the sequence (P28845 whole entry, looked up) above
In the next series the target is T5, CYP17A1 (Homo sapiens, UniProt P05093).
T5 sequence (P05093 whole entry): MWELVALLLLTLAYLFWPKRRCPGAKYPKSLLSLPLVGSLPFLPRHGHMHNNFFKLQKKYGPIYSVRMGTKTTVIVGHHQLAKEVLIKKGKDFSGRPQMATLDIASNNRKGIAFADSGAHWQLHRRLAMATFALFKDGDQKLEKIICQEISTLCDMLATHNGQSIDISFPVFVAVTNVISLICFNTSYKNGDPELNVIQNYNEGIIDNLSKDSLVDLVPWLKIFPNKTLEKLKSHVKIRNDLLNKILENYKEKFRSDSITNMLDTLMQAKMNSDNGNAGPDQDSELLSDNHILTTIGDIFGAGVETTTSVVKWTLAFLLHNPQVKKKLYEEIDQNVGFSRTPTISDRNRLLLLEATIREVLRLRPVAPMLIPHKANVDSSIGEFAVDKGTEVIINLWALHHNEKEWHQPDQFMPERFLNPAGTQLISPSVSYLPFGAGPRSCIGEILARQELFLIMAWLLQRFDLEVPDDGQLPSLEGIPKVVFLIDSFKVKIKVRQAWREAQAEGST
Put plainly: Inhibition of human CYP17A1 expressed in Escherichia coli XL1 at 2 uM using [3H]-progesterone as substrate preincubated with substrate for 5 mins measured after 45 mins by HPLC analysis. In kind it is ADME. Conditions: human CYP17A1 expressed in Escherichia coli XL1, probe [3H]-progesterone.

Series [8] relates to Zone of skin. Put plainly: Induction of wound healing in human skin explant assessed as re-epithelialization at 5 uM administered topically for 3 days measured on day 2 post administration by hematoxylin-eosin-saffron staining based microscopic analysis (reference value: 28 +/- 2%). In kind it is functional.
Series [9] can be described thus: Half life in human plasma at 1 uM up to 150 mins by LC-MS/MS analysis. The class given is ADME, cell-free.
Series [10] can be described thus: Cytotoxicity against human epidermal keratinocytes assessed as cell viability at 11 uM after 72 hrs by MTT assay relative to control. Details: species or system Keratinocyte. As to conditions: read-out: Activity.
For series [11], the system named is Salmonella typhimurium. Put plainly: Mutagenicity in Salmonella typhimurium TA98 up to 100 uM in absence of rat liver S9 fraction by Ames 2 assay. In kind it is toxicity, organism-based. Conditions: salmonella enterica subsp. enterica serovar typhimurium.
In series [12] the test system is Salmonella typhimurium. Put plainly: Mutagenicity in Salmonella typhimurium TA7001/7002/7003/7004/7005/7006 up to 100 uM in absence of rat liver S9 fraction by Ames 2 assay. Conditions: salmonella enterica subsp. enterica serovar typhimurium. In kind it is toxicity, organism-based.
The subject of series [13] is Salmonella typhimurium. Put plainly: Mutagenicity in Salmonella typhimurium TA7001/7002/7003/7004/7005/7006 up to 100 uM in presence of rat liver S9 fraction by Ames 2 assay. In kind it is toxicity, organism-based. Conditions: salmonella enterica subsp. enterica serovar typhimurium.
Series [14] deals with Zone of skin. Put plainly: Induction of wound healing in human skin explant assessed as re-epithelialization at 5 uM administered topically for 3 days measured on day 3 post administration by hematoxylin-eosin-saffron staining based microscopic analysis relative to control. The class given is functional.
Series [15] concerns Zone of skin. Put plainly: Induction of wound healing in human skin explant assessed as re-epithelialization at 5 uM administered topically for 3 days measured on day 1 post administration by hematoxylin-eosin-saffron staining based microscopic analysis (reference value: 13 +/- 7%). The class given is functional.
For series [16], the system named is Salmonella typhimurium. Put plainly: Mutagenicity in Salmonella typhimurium TA98 up to 100 uM in presence of rat liver S9 fraction by Ames 2 assay. Conditions: salmonella enterica subsp. enterica serovar typhimurium. The class given is toxicity, organism-based.

6 molecules from ChEMBL document CHEMBL4251585, “Accelerated skin wound healing by selective 11β-Hydroxylase (CYP11B1) inhibitors” (Eur J Med Chem, 2018) can be followed below.

For `Oc1cncc(Cc2cnc(-c3ccccc3)s2)c1`, the IC50 (in general, the point on the concentration scale where inhibition reaches its midpoint) in series [1] amounted to 77 nM.

`CC(C)(C(=O)c1cccnc1)c1cccnc1` [METYRAPONE]: the inhibition – broadly, the percentage by which the read-out fell short of the control – in [2] was found to be 54%; in [4], 70%. For the same molecule, the half-life (in general, the time in which the quantity being followed falls by half) at 1 µM in series [3] was determined as 49 min. On CYP19A1 (aromatase), this molecule registered an inhibition at 0.35 h, 2 µM of 0%. Besides, in series [5], the “inhibition (INH)” value was “Not Active”.

As to `Oc1cncc(Cc2cc(-c3ccccc3)no2)c1`, half-maximal inhibition in [1] (IC50) was put at 120 nM.

As to `Cn1nc(-c2ccccc2)cc1Cc1cncc(O)c1`, in [3], the half-life at 1 µM worked out at 33 min. The “inhibition (INH)” value in series [6] is recorded as “Not Active”. This molecule also came in with an inhibition at 0.35 h, 2 µM against CYP19A1 (aromatase) of 0%. Further, the IC50 in series [7] stood at 1620 nM; in [1], 17 nM. Moreover, the inhibition at 0.75 h, 2 µM at CYP17A1 worked out at 10%.

For `Oc1cncc(Cc2ccc(-c3ccccc3F)nc2)c1`, the half-life at 1 µM in [3] amounted to 21 min. On CYP19A1 (aromatase), this molecule had an inhibition at 0.35 h, 2 µM of 1%. Moreover, half-maximal inhibition in [1] (IC50) required 29 nM.

In the case of `COc1cncc(Cc2ccc(-c3ccccc3F)nc2)c1`, the Activity was 89% with Zone of skin [8]; “Non-Toxic” in the series with Salmonella typhimurium [11]; “Non-Toxic” with Salmonella typhimurium [12]; “Non-Toxic” in the series on Salmonella typhimurium [13]; 98% in the series on Zone of skin [14]; 10% in the series with Zone of skin [15]. Also, the Activity entry in the series on Salmonella typhimurium [16] is recorded as “Non-Toxic”. Also, the figures for the half-life at 1 µM in series [3] and in [9] were 19 min and over 150 min, respectively. Besides, in [10], the viability at 72 h, 11 µM worked out at 87%. Further, the inhibition at 0.35 h, 2 µM on CYP19A1 (aromatase) amounted to 2%. Moreover, in [4], the inhibition stood at 48%. The inhibition at 0.75 h, 2 µM against CYP17A1 amounted to 5%. The molecule also showed an IC50 in series [1] of 0.8 nM. The “inhibition (INH)” value in [5] is on record as “Not Active”.
